Patent US11452727B2, “Combination therapy for treating cancer” (Epizyme, Inc., priority 2017, dated 2022)

How the values were obtained:
Assay in all cases: In vitro combination study with tazemetostat, cell proliferation (Cell Titer Glo)
[1] = test system: NCI-H522; conditions: 7 days tazemetostat pre-treatment, 6 days co-treatment with second agent
Description: (§1) Initial proliferation studies were performed to determine the IC50 of tazemetostat in each cell line. For the screen, tazemetostat was used at concentrations bracketed around the IC50 value. If 50% inhibitory concentration was not reached then tazemetostat was tested starting at 10 μM.
(§2) In order to study the effect of dual combination of tazemetostat and a second agent on cell proliferation, cells in log-linear phase growth rate were pre-treated with various concentrations of tazemetostat or DMSO for 7 days in flasks, plated in 384-well plates in the absence of compounds and co-treated on day 8 with tazemetostat or DMSO and the second agent serially diluted for additional 6 days (as depicted in FIG. 1). On day 15, plates were developed for endpoint analysis using Cell Titer Glo to measure ATP content, which was used as an indicator of cell viability. DMSO concentration was kept constant throughout the assay at 0.15% v/v.

[2] = test system: NCI-H1793; conditions: 7 days tazemetostat pre-treatment, 6 days co-treatment with second agent
Description: as §1, §2
(§3) NCI-H1573 was cultured in DMEM: F12 Medium containing the following components: 0.02 mg/ml insulin, 0.01 mg/ml transferrin, 25 nM sodium selenite, 50 nM Hydrocortisone, 1 ng/ml Epidermal Growth Factor, 0.01 mM ethanolamine, 0.01 mM phosphorylethanolamine, 100 pM triiodothyronine, 0.5% (w/v) bovine serum albumin, 0.5 mM sodium pyruvate, 4.5 mM L-glutamine and 1% v/v Pen/Strep.

[3] = test system: NCI-H838; conditions: 7 days tazemetostat pre-treatment, 6 days co-treatment with second agent
Description: as §1, §2, §3

[4] = test system: NCI-H2110; conditions: 7 days tazemetostat pre-treatment, 6 days co-treatment with second agent
Description: as §1, §2

[5] = test system: NCI-H1993; conditions: 7 days tazemetostat pre-treatment, 6 days co-treatment with second agent
Description: as §1, §2

[6] = test system: A549; conditions: 7 days tazemetostat pre-treatment, 6 days co-treatment with second agent
[7] = test system: HCC827; conditions: 7 days tazemetostat pre-treatment, 6 days co-treatment with second agent
[8] = test system: Calu-6; conditions: 7 days tazemetostat pre-treatment, 6 days co-treatment with second agent
Description: as §1, §2

[9] = test system: NCI-H1573; conditions: 7 days tazemetostat pre-treatment, 6 days co-treatment with second agent
Description: as §1, §2, §3

[10] = test system: NCI-H1703; conditions: 7 days tazemetostat pre-treatment, 6 days co-treatment with second agent
Description: as §1, §2

[11] = test system: NCI-H1299; conditions: 7 days tazemetostat pre-treatment, 6 days co-treatment with second agent
Description: as §1, §2

[12] = test system: NCI-H661; conditions: 7 days tazemetostat pre-treatment, 6 days co-treatment with second agent
[13] = test system: NCI-H2030; conditions: 7 days tazemetostat pre-treatment, 6 days co-treatment with second agent
[14] = test system: NCI-H460; conditions: 7 days tazemetostat pre-treatment, 6 days co-treatment with second agent
Description: as §1, §2
(§4) All cell lines were obtained from American Type Culture Collection (ATCC; Rockville, Md.). […] A427, Calu-3, Calu-6 cell lines were cultured in EMEM+10% Fetal bovine serum (FBS)+1% v/v Penicillin/Streptomycin (P/S).

[15] = test system: NCI-H2122; conditions: 7 days tazemetostat pre-treatment, 6 days co-treatment with second agent
[16] = test system: A427; conditions: for combinatorial effect with tazemetostat (Loewe volume class): A427, 7 days tazemetostat pre-treatment, 6 days co-treatment with second agent
Description: as §1, §2, §4

[17] = test system: Calu-3; conditions: 7 days tazemetostat pre-treatment, 6 days co-treatment with second agent
Description: as §1, §2, §3

[18] = test system: NCI-H23; conditions: 7 days tazemetostat pre-treatment, 6 days co-treatment with second agent
Description: as §1, §2, §4

Structure (SMILES): CC(=O)c1c(C)c2cnc(Nc3ccc(N4CCNCC4)cn3)nc2n(C2CCCC2)c1=O [Palbociclib, palbociclib]
- combinatorial effect with tazemetostat (Loewe volume class) [1]: No eff.
- combinatorial effect with tazemetostat (Loewe volume class) [2]: Syn. (Loewe volumes greater than 1 denoted “synergy”)
- combinatorial effect with tazemetostat (Loewe volume class) [3]: Add. (A value between −1 and 1 denoted “additivity”)
- combinatorial effect with tazemetostat (Loewe volume class) [4]: Add. (A value between −1 and 1 denoted “additivity”)
- combinatorial effect with tazemetostat (Loewe volume class) [5]: Syn. (Loewe volumes greater than 1 denoted “synergy”)
- combinatorial effect with tazemetostat (Loewe volume class) [6]: Add. (A value between −1 and 1 denoted “additivity”)
- combinatorial effect with tazemetostat (Loewe volume class) [7]: Add. (A value between −1 and 1 denoted “additivity”)
- combinatorial effect with tazemetostat (Loewe volume class) [8]: Add. (A value between −1 and 1 denoted “additivity”)
- combinatorial effect with tazemetostat (Loewe volume class) [9]: Syn. (Loewe volumes greater than 1 denoted “synergy”)
- combinatorial effect with tazemetostat (Loewe volume class) [10]: Anta. (volumes <−1 denoted “antagonism”)
- combinatorial effect with tazemetostat (Loewe volume class) [11]: Anta. (volumes <−1 denoted “antagonism”)
- combinatorial effect with tazemetostat (Loewe volume class) [12]: Syn. (Loewe volumes greater than 1 denoted “synergy”)
- combinatorial effect with tazemetostat (Loewe volume class) [13]: Add. (A value between −1 and 1 denoted “additivity”)
- combinatorial effect with tazemetostat (Loewe volume class) [14]: Add. (A value between −1 and 1 denoted “additivity”)
- combinatorial effect with tazemetostat (Loewe volume class) [15]: Anta. (volumes <−1 denoted “antagonism”)
- combinatorial effect with tazemetostat (Loewe volume class) [16]: Syn. (Loewe volumes greater than 1 denoted “synergy”)
- combinatorial effect with tazemetostat (Loewe volume class) [17]: Add. (A value between −1 and 1 denoted “additivity”)
- combinatorial effect with tazemetostat (Loewe volume class) [18]: Syn. (Loewe volumes greater than 1 denoted “synergy”)

Structure (SMILES): Cc1cc(Nc2ncc(Cl)c(Nc3ccccc3S(=O)(=O)C(C)C)n2)c(OC(C)C)cc1C1CCNCC1 [Ceritinib, ceritinib]
- combinatorial effect with tazemetostat (Loewe volume class) [1]: Add. (A value between −1 and 1 denoted “additivity”)
- combinatorial effect with tazemetostat (Loewe volume class) [2]: Add. (A value between −1 and 1 denoted “additivity”)
- combinatorial effect with tazemetostat (Loewe volume class) [3]: Syn. (Loewe volumes greater than 1 denoted “synergy”)
- combinatorial effect with tazemetostat (Loewe volume class) [4]: Add. (A value between −1 and 1 denoted “additivity”)
- combinatorial effect with tazemetostat (Loewe volume class) [5]: Syn. (Loewe volumes greater than 1 denoted “synergy”)
- combinatorial effect with tazemetostat (Loewe volume class) [6]: Add. (A value between −1 and 1 denoted “additivity”)
- combinatorial effect with tazemetostat (Loewe volume class) [7]: Add. (A value between −1 and 1 denoted “additivity”)
- combinatorial effect with tazemetostat (Loewe volume class) [8]: Add. (A value between −1 and 1 denoted “additivity”)
- combinatorial effect with tazemetostat (Loewe volume class) [9]: Syn. (Loewe volumes greater than 1 denoted “synergy”)
- combinatorial effect with tazemetostat (Loewe volume class) [10]: Add. (A value between −1 and 1 denoted “additivity”)
- combinatorial effect with tazemetostat (Loewe volume class) [11]: Add. (A value between −1 and 1 denoted “additivity”)
- combinatorial effect with tazemetostat (Loewe volume class) [12]: Syn. (Loewe volumes greater than 1 denoted “synergy”)
- combinatorial effect with tazemetostat (Loewe volume class) [13]: Add. (A value between −1 and 1 denoted “additivity”)
- combinatorial effect with tazemetostat (Loewe volume class) [14]: Add. (A value between −1 and 1 denoted “additivity”)
- combinatorial effect with tazemetostat (Loewe volume class) [15]: Anta. (volumes <−1 denoted “antagonism”)
- combinatorial effect with tazemetostat (Loewe volume class) [16]: Syn. (Loewe volumes greater than 1 denoted “synergy”)
- synergy with an EZH2 inhibitor (tazemetostat) ([16]; A427 cells, dose matrix, Loewe excess matrix, isobologram (FIG. 2-5)): synergy
- combinatorial effect with tazemetostat (Loewe volume class) [17]: Add. (A value between −1 and 1 denoted “additivity”)
- combinatorial effect with tazemetostat (Loewe volume class) [18]: Add. (A value between −1 and 1 denoted “additivity”)

Structure (SMILES): CN(C)C/C=C/C(=O)Nc1cc2c(Nc3ccc(F)c(Cl)c3)ncnc2cc1O[C@H]1CCOC1 [Afatinib, afatinib]
- combinatorial effect with tazemetostat (Loewe volume class) [1]: Syn. (Loewe volumes greater than 1 denoted “synergy”)
- combinatorial effect with tazemetostat (Loewe volume class) [2]: Syn. (Loewe volumes greater than 1 denoted “synergy”)
- combinatorial effect with tazemetostat (Loewe volume class) [3]: Syn. (Loewe volumes greater than 1 denoted “synergy”)
- combinatorial effect with tazemetostat (Loewe volume class) [4]: Syn. (Loewe volumes greater than 1 denoted “synergy”)
- combinatorial effect with tazemetostat (Loewe volume class) [5]: Add. (A value between −1 and 1 denoted “additivity”)
- combinatorial effect with tazemetostat (Loewe volume class) [6]: Anta. (volumes <−1 denoted “antagonism”)
- combinatorial effect with tazemetostat (Loewe volume class) [8]: Add. (A value between −1 and 1 denoted “additivity”)
- combinatorial effect with tazemetostat (Loewe volume class) [9]: Add. (A value between −1 and 1 denoted “additivity”)
- combinatorial effect with tazemetostat (Loewe volume class) [10]: Add. (A value between −1 and 1 denoted “additivity”)
- combinatorial effect with tazemetostat (Loewe volume class) [11]: Add. (A value between −1 and 1 denoted “additivity”)
- combinatorial effect with tazemetostat (Loewe volume class) [12]: Add. (A value between −1 and 1 denoted “additivity”)
- combinatorial effect with tazemetostat (Loewe volume class) [13]: Add. (A value between −1 and 1 denoted “additivity”)
- combinatorial effect with tazemetostat (Loewe volume class) [14]: Add. (A value between −1 and 1 denoted “additivity”)
- combinatorial effect with tazemetostat (Loewe volume class) [15]: Add. (A value between −1 and 1 denoted “additivity”)
- combinatorial effect with tazemetostat (Loewe volume class) [16]: Syn. (Loewe volumes greater than 1 denoted “synergy”)
- combinatorial effect with tazemetostat (Loewe volume class) [17]: Syn. (Loewe volumes greater than 1 denoted “synergy”)
- combinatorial effect with tazemetostat (Loewe volume class) [18]: Add. (A value between −1 and 1 denoted “additivity”)

Structure (SMILES): O=C(CCCCCCC(=O)Nc1ccccc1)NO [Vorinostat, vorinostat]
- combinatorial effect with tazemetostat (Loewe volume class) [1]: Syn. (Loewe volumes greater than 1 denoted “synergy”)
- combinatorial effect with tazemetostat (Loewe volume class) [2]: Syn. (Loewe volumes greater than 1 denoted “synergy”)
- combinatorial effect with tazemetostat (Loewe volume class) [3]: Add. (A value between −1 and 1 denoted “additivity”)
- combinatorial effect with tazemetostat (Loewe volume class) [4]: Add. (A value between −1 and 1 denoted “additivity”)
- combinatorial effect with tazemetostat (Loewe volume class) [5]: Add. (A value between −1 and 1 denoted “additivity”)
- combinatorial effect with tazemetostat (Loewe volume class) [6]: Add. (A value between −1 and 1 denoted “additivity”)
- combinatorial effect with tazemetostat (Loewe volume class) [7]: Add. (A value between −1 and 1 denoted “additivity”)
- combinatorial effect with tazemetostat (Loewe volume class) [8]: Syn. (Loewe volumes greater than 1 denoted “synergy”)
- combinatorial effect with tazemetostat (Loewe volume class) [9]: Syn. (Loewe volumes greater than 1 denoted “synergy”)
- combinatorial effect with tazemetostat (Loewe volume class) [10]: Syn. (Loewe volumes greater than 1 denoted “synergy”)
- combinatorial effect with tazemetostat (Loewe volume class) [11]: Add. (A value between −1 and 1 denoted “additivity”)
- combinatorial effect with tazemetostat (Loewe volume class) [12]: Add. (A value between −1 and 1 denoted “additivity”)
- combinatorial effect with tazemetostat (Loewe volume class) [13]: Syn. (Loewe volumes greater than 1 denoted “synergy”)
- combinatorial effect with tazemetostat (Loewe volume class) [14]: Syn. (Loewe volumes greater than 1 denoted “synergy”)
- combinatorial effect with tazemetostat (Loewe volume class) [15]: Add. (A value between −1 and 1 denoted “additivity”)
- combinatorial effect with tazemetostat (Loewe volume class) [16]: Syn. (Loewe volumes greater than 1 denoted “synergy”)
- combinatorial effect with tazemetostat (Loewe volume class) [17]: Add. (A value between −1 and 1 denoted “additivity”)
- combinatorial effect with tazemetostat (Loewe volume class) [18]: Syn. (Loewe volumes greater than 1 denoted “synergy”)
